From patent publication US6861070B1, “Medicinal compositions for treating evacuatory insufficiency” (Yamanouchi Pharmaceutical Co., Ltd., priority 1998, dated 2005)
Structures can show the parent of a compound that is named as a salt.

System: patients diagnosed to be voiding dysfunction associated with neurogenic bladder
Assay: Clinical test to patients of voiding dysfunction associated with neurogenic bladder
Assay type: in vivo
Description: Test Example 1. Clinical Test to Patients of Voiding Dysfunction Associated with Neurogenic Bladder. Clinical test was carried out under the following conditions to the causes of voiding dysfunction associated with neurogenic bladder. Patients: Sixty patients diagnosed to be voiding dysfunction associated with neurogenic bladder (excluding the cases where the cause was peripheral diseases). Used drug and method of administration: Capsule preparation containing 0.2 mg of tamsulosin hydrochloride or placebo capsule was used and two capsules were orally administered after breakfast (once daily) for four weeks. […] Approximate safety was evaluated as no problem, little problems, some problems and problems according to the presence/absence and degree of side effect, change of blood pressure and pulse rate, and abnormal change in clinical date. Impression by the patient was judged to be much improvement, improvement, some improvement, no change, some worsening, worsening and much worsening. Finally, degree of improvement as a whole, approximate safety and impression by patient were taken into consideration and the final judgement for the Usefulness wan judged to be any of the […]—very useful, useful, somewhat useful and not preferable.

[1] = compared with placebo group, two 0.2 mg capsules orally once daily, four weeks
[2] = share of patients (12/20), two 0.2 mg capsules orally once daily, four weeks
[3] = two 0.2 mg capsules orally once daily after breakfast, four weeks, n = 16
[4] = two 0.2 mg capsules orally once daily after breakfast, four weeks, n = 23

## CCOc1ccccc1OCCN[C@H](C)Cc1ccc(OC)c(S(N)(=O)=O)c1 [Tamsulosin Hydrochloride, (R)(−)-5-{2-{[2-(o-ethoxyphenoxy)ethyl}amino]propyl}-2-methoxybenzene-sulfonamide]
[1]
  Approximate safety (side effect, blood pressure, pulse rate, clinical data): no significant difference
  Impression by patient: no significant difference
Impression by the patients further taken into consideration
  Usefulness as a therapeutic agent (final judgement, in words): useful as a therapeutic agent
Patients suffering from voiding dysfunction associated with neurogenic bladder
  Improvement of subjective symptom and objective observation and improvement as a whole (in words): significant improvement
Share of patients (10/23), two 0.2 mg capsules orally once daily, four weeks
  Degree of Improvement in Subjective Symptoms, ≧Medium Improvement: 43.5%
[2]
  Degree of Improvement as a Whole, ≧Medium Improvement: 60.0%
  Degree of Improvement in Objective Observation, ≧Medium Improvement: 80.0%
Share of patients (12/23), two 0.2 mg capsules orally once daily, four weeks
  Usefulness, ≧Useful: 52.2%
[3]
  Average Urinary Flow (Changing Amt): 1.2 ± 1.66 mL/s
  Maximum Urinary Flow (Changing Amt): 2.5 ± 3.01 mL/s
  Residual Urine Rate (Changing Amt): −13 ± 20.0%
[4]
  Residual Urine Amount (Changing Amt): -18 ± 80.1 mL
  Total Score (Changing Rate) of subjective symptoms (1)-(8): −31 ± 34.2%
